# Test results: patent publication US20180110978A1, “SYNERGISTIC REGULATED CELL DEATH INDUCTION WITH HSP90 INHIBITORS AND NANOSECOND PULSED ELECTRIC FIELDS” (Old Dominion University Research Foundation, priority 2015, published 2018)
# Columns and labels:
# cleaved caspase 3 = assay: Western blot for cleaved caspase 3 relative to β-actin (LI-COR Odyssey CLx); assay type: cell-based
# Excerpt: FIG. 7 is a graphical representation illustrating western blot test results for cleaved caspase 3 when employing an Hsp90 inhibitor at different concentrations, according to an embodiment. In FIG. 7, western blot test results 700 include stained bands 702 and cleaved caspase 3 fold change graph 708. In FIG. 7, stained bands 702 include cleaved caspase 3 bands 704 and β-actin bands 706. In FIG. 7, cleaved caspase 3 fold change graph 708 includes bars 710, 712, and 714. In an example, the western blot data is quantified using a LI-COR Odyssey CLx imaging system. In FIG. 7, stained bands 702 is a photographic representation depicting an expression of cleaved caspase 3 as a function of concentration of an Hsp90 inhibitor (e.g., AUY922). In FIG. 7, cleaved caspase 3 fold change graph 708 is a graphical representation illustrating fold changes of caspase 3 with respect to β-actin. FIG. 8 is a graphical representation illustrating western blot test results for cleaved caspase 3 when employing an Hsp90 inhibitor alone, nsPEF alone, or a combination of both treatments, according to an embodiment. In FIG. 8, western blot test results 800 include stained bands 802 and caspase 3 fold change graph 808. In FIG. 8, stained bands 802 include cleaved caspase 3 bands 804, β-actin bands 806, and caspase expression 807. In FIG. 8, caspase 3-fold change graph 808 includes bars 810, 812, and 814. In an example, the western blot data is quantified using LI-COR Odyssey CLx imaging system. In some embodiments, stained bands 802 is a photographic representation depicting an expression of cleaved caspase 3 as a function of the treatment employed. In these embodiments, caspase 3 fold change graph 808 is a graphical representation illustrating fold changes of caspase 3 with respect to β-actin.
# [1] = test system: caspase 3/7 catalytic activity in N1-S1 cells; assay: Caspase 3/7 catalytic activity in N1-S1 cells (Caspase-Glo); assay type: cell-based, rat
# Procedure: In some embodiments, bar graph 402 represents the percentage change in caspase 3/7 catalytic activity after four (4) hours of incubation with 0.3 μM 17-AAG followed by the application of a single 600 ns pulse at different electric field intensities (from 0 to about 60 kV/cm). In these embodiments, bar graph 432 represents the percentage change in […] after 16 hours of incubation with 0.3 μM 17-AAG followed by the application of a single 600 ns pulse at different electric field intensities (from 0 to about 60 kV/cm).
# In some embodiments, N1-S1 cells were incubated with or without 17-AAG for 4 hours or 16 hours to determine a synergistic activation of caspase 3/7 with 17-AAG and nsPEFs. In these embodiments, after the incubation period, N1-S1 cells were then treated with nsPEFs with increasing electric fields (one 600 ns pulse) and assayed for caspase 3/7 catalytic activity two (2) hours after pulsing. In an example, caspase 3/7 catalytic activity is measured employing Caspase-Glo (available from Promega, Madison, Wis.) 2 hours after pulsing.
# N1-S1 rat HCC cells = assay: Cell viability of N1-S1 rat HCC cells (CellTiter-Glo) after Hsp90 inhibitor and/or nsPEF; assay type: cell-based
# Procedure: In some embodiments, N1-S1 rat HCC cells are exposed to an inhibitor of Hsp90 and then exposed to nsPEFs to cause cell death. In these embodiments, using the aforementioned methodology the cells mortality is greater than when either Hsp90 inhibitor or nsPEFs are employed alone. In an example, N1-S1 rat HCC cells are treated with 0.3 μM 17-AAG and incubated for 24 hours. In this example, after the 24 hours incubation period, the N1-S1 rat HCC cells are treated with a single 600 ns pulse with increasing electric field intensities (from about 10 kV/cm to about 60 kV/cm). Further to this example, cell viability is determined employing CellTiter-Glo (available from Promega, Madison, Wis.) 24 hours after pulsing.
# In an example, mitochondria membrane potential (ΔΨm) and Ca^2+ influx are determined by employing Tetramethylrhodamine, ethyl ester (TMRE) Assay Kit and green-fluorescent calcium indicator, Fluo-4, respectively, 10 minutes after pulsing. In this example, cell viability is determined employing CellTiter-Glo (available from Promega, Madison, Wis.) 24 hours after pulsing.
# In some embodiments, bar 502 illustrates the percentage of cell viability for a control sample where none of the treatments are employed. In these embodiments, bar 504 illustrates the percentage of cell viability when employing an Hsp90 inhibitor at a concentration of 0.3 μM (e.g., 17-AAG) without nsPEFs. Further to these embodiments, bar 506 illustrates the percentage of cell viability when employing only a single 600 nsPEF of 60 kV/cm. Still further to these embodiments, bar 508 illustrates the percentage of cell viability when employing both treatments (0.3 μM 17-AAG and single 600 ns pulse of 60 kV/cm). In an example, N1-S1 HCC cells are employed for the cell viability test.
Compound,"ratio of caspase 3 to β-actin (fold change) (cleaved caspase 3; 1 μM AUY922, no nsPEF (bar 712, FIG. 7), no AUY922 about 1)","ratio of caspase 3 to β-actin (fold change) (cleaved caspase 3; 1 μM AUY922 alone (bar 814, FIG. 8))","ratio of caspase 3 to β-actin (fold change) (cleaved caspase 3; 1 μM AUY922 plus nsPEF of 600 ns at 20 kV/cm (bar 812, FIG. 8))","ratio of caspase 3 to β-actin (fold change) (cleaved caspase 3; 10 μM AUY922, no nsPEF (bar 714, FIG. 7), no AUY922 about 1)","effect of 17-AAG on the nsPEF-induced modest change in catalytic activity ([1]; 0.3 μM 17-AAG 4 h, then 600 ns pulse at higher electric fields 50-60 kV/cm (bars 428, 430))","effect of 17-AAG on the nsPEF-induced modest change in caspase activity ([1]; 0.3 μM 17-AAG 4 h, then 600 ns pulse at lower electric fields 10-40 kV/cm (bars 420-426))","change in caspase 3/7 activity ([1]; 0.3 μM 17-AAG alone, 4 hours of incubation (bar 418, FIG. 4))","change in caspase 3/7 activity ([1]; 0.3 μM 17-AAG, 16 h of incubation, unaffected by nsPEFs (FIG. 4))",synergistic effects on caspase 3/7 activity of 17-AAG together with nsPEFs ([1]; the two treatments included together),"cell viability reduction (N1-S1 rat HCC cells; 0.3 μM 17-AAG alone, 24 h incubation, no nsPEF (bar 116, FIG. 1), viability 24 h after pulsing time)","additional increase in the reduction of cell viability (N1-S1 rat HCC cells; 0.3 μM 17-AAG plus nsPEF at about 50 kV/cm (bar 610, FIG. 6))","percentage of cell viability (N1-S1 rat HCC cells; 0.3 μM 17-AAG plus single 600 ns pulse of 60 kV (bar 508, FIG. 5))","cells killed (N1-S1 rat HCC cells; cells pre-treated with 0.3 μM 17-AAG, then single 600 ns pulse of 50 kV/cm) [%]"
CCNC(=O)c1noc(-c2cc(C(C)C)c(O)cc2O)c1-c1ccc(CN2CCOCC2)cc1 [AUY922],about 2,~3,about 7,about 7,–,–,–,–,–,–,–,–,–
C=CCNC1=C2C[C@@H](C)C[C@H](OC)[C@H](O)[C@@H](C)/C=C(\C)[C@H](OC(N)=O)[C@@H](OC)/C=C\C=C(/C)C(=O)NC(=CC1=O)C2=O [17-AAG],–,–,–,–,no effect,no effect,no significant change,significant increases,no synergistic effects,about 25%,about 45%,about 17%,80
